Assays:
c-Myc oncogene = c-Myc oncogene expression, SK-MES-1 cells; format: cell-based; conditions: SK-MES-1, 96 hours in culture
Protocol: (§1) T24 Bladder transitional carcinoma cells, Calu-6 anaplastic lung carcinoma cells, and SK-MES-1 squamous lung cell carcinoma cell cultures were purchased from the American Type Culture Collection (Manassas, Va.). All cell lines were cultured in RPMI-1640 with 10% fetal calf serum. For culture in microtiter dishes, cells were plated at a density of 10^4 cells/well and incubated at 37° C., 5% CO2 overnight.
(§2) After overnight incubation, drugs were added to wells in quadruplicate and incubated for 6 to 96 hours in the presence or absence of the oxyalkylene containing compound. […] the media was removed, fresh media were added with cytotoxic drug, and the cultures were incubated for another 6 hours.
Tumor cell culture mRNA was isolated by standard methods, and RT-PCR was conducted to determine levels of c-Myc oncogene expression. The c-Myc primer pair used for RT-PCR cycling was:
The c-Myc primer pair was cycled by the following program: 95° C. for 3 min., then 30 cycles of (95° C. for 1 min., then 55° C. for 1 min., then 72° C. for 1 min.) followed by holding temperature at 72° C. for 7 min. before ramping temperature to 4° C. Samples were analyzed quantitatively by 1% agarose gel electrophoresis and gel densitometry.

H522 NSCLC cell line = experiment: MTS growth inhibition assay, sequencing of Pivanex and docetaxel, H522; format: cell-based, human; conditions: after 24 hour exposure
Protocol: Human Non-Small Cell Lung Carcinoma Cell Lines, H522 and NCI-H23, were evaluated for growth inhibitory activity of Pivanex, alone and in combination with the standard chemotherapeutic agent, docetaxel. Cells were treated for three days with Pivanex followed by 24 hours of exposure to docetaxel or the cells were treated for 24 hours with docetaxel followed by three days of exposure to Pivanex. The cell growth inhibition was judged at the end of the 4-day experiments by a standard staining technique using MTS tetrazolium vital stain. […]
Exponentially growing cells were harvested with trypsin (0.05%)/EDTA (0.02%) and re-suspended in fresh medium containing 10% FBS. […] Absorbance was documented on a Dynex HD microplate reader at a wavelength of 490 nm. IC50 values were determined by using the Prism® GraphPad software from 3 different tests, each of which involved 4 replicates for each dose determination. The data are presented as percent growth inhibition, where 0% represents the mean value in wells to which only vehicle (0.1% DMSO) was added and was calculated as follows: % Growth Inhibition=(1−(ODtest/ODvehicle))×100 where ODtest is the optical density of the tested sample, OD vehicle is the optical density of the vehicle in which each respected drug is dissolved. […]

[1] = Biological evaluations (myeloablation, myelosuppression)
Excerpt: Pivaloyloxymethyl butyrate functions as a differentiating agent with activity against multiple tumor cell types in culture.

[2] = Preliminary Phase I/II clinical trials, lung cancer and refractory malignancies metastatic to the liver; format: in vivo, human
p53 = experiment: Oncogene expression after exposure of tumor cells; format: cell-based; conditions: 72-hour exposure, 10-50 μM
Excerpt: (§3) The observed morphologic changes consistent with a more differentiated phenotype prompted investigation of oncogene expression following exposure to pivaloyloxymethyl butyrate.

c-myc = experiment: Oncogene expression after exposure of tumor cells; format: cell-based; conditions: 72-hour exposure, 10-50 μM
Excerpt: as §3

ras = experiment: Oncogene expression after exposure of tumor cells; format: cell-based; conditions: 72-hour exposure, 10-50 μM
Excerpt: as §3

[3] = tested on: SK-MES-1 squamous lung cell carcinoma cell; experiment: Crystal violet microtiter assay, Pivanex then cytotoxic drug, SK-MES-1; format: cell-based; conditions: for SK-MES-1 cancer cell viability (A^490 Absorbance): paclitaxel 0 μM
Protocol: as §1, §2
The wells were then washed and medium without drug was added to each well. Microtiter plates were subsequently incubated for an additional 3 days before cell density was determined by a Crystal Violet Assay. Some cultures were alternatively fixed in methanol and stained with hematoxylin and eosin (H&E) stain for 5 minutes prior to microphotography.
PIVANEX (pivaloyloxymethyl butyrate) was obtained from Titan Pharmaceuticals Inc. (South San Francisco, Calif.) and was admixed with 0.05% Intralipid™ (Fresenius Kabi, Clayton, N.C.) prior to addition to culture media. The cytotoxic drugs gemcitabine (Gemzar; Eli Lilly and Co., Indianapolis, Ind.), cisplatin (Platinol, Bristol-Myers Squibb Co., Princeton, N.J.), paclitaxel (Taxol; Bristol-Myers Squibb Co., Princeton, N.J.), and docetaxel (Taxotere, Aventis Pharmaceuticals Products, Inc., Bridgewater, N.J.) were studied with PIVANEX.
Cells in microtiter wells were rinsed with PBS and fixed in two volumes of 100% cold methanol for 5 minutes. One volume of 0.5% crystal violet in 20% methanol was added and the attached cells stained for 10 minutes. The cells were then washed and crystal violet was eluted with 0.1 N sodium citrate buffer and read on an ELISA plate reader at 490 nm.

SMILES: CCCC(=O)OCOC(=O)C(C)(C)C [Pivanex, pivaloyloxymethyl butyrate]
- concentrations (as low as) that decreased the expression of c-Myc oncogene (c-Myc oncogene): 10 to 50 µM
- cell growth with agent alone (H522 NSCLC cell line): steep increase in H522 cell growth
- myeloablation / myelosuppression [1]: non-myeloablative and non-myelosuppressive
- tolerability [2]: well tolerated
- p53 expression (p53): significant suppression
- c-myc expression (c-myc): significant suppression
- ras expression (ras): significant suppression
- SK-MES-1 cancer cell viability (A^490 Absorbance) ([3]; Pivanex 10 μM): 0.743
- SK-MES-1 non-small cancer cell viability (A^490 Absorbance) ([3]; Pivanex 25 μM alone): 1.852
- SK-MES-1 cancer cell viability (A^490 Absorbance) ([3]; Pivanex 50 μM): 0.769
- SK-MES-1 non-small cancer cell viability (A^490 Absorbance) ([3]; Pivanex 100 μM alone): 1.908
- SK-MES-1 non-small cancer cell viability (A^490 Absorbance) ([3]; Pivanex 200 μM alone): 1.952

— patent publication US20060089410A1, “Combination of chemotherapeutic drugs for increasing antitumor activity” (Titan Pharmaceuticals, Inc., priority 2002, published 2006)
